What was measured:
Type in all cases: cell-based
[1] = tested on: HIV-1 isolate SF162 in primary human fetal astrocytes; test: p24 ELISA, HIV replication in SF162 infected astroglia; conditions: Astroglia/SF-162; 0.01 (μM) every 24 hours; culture medium 5 days after infection; HIV control 313.38
Protocol: Purified primary human fetal astrocytes and microgial cells were prepared from 16 to 20 week old human fetal brain tissue by a modified procedure based on the methods of Cole and de Vellis^11, and Yong and Ante^13. Brain tissue was washed in ice-cold Hank's Balanced Salt Solution (HBSS) containing the antibiotics gentamycin and amphotericin B. Blood vessels and meninges were removed and the tissue was minced into small pieces. After mincing, the tissue was enzymatically dissociated by incubation in 0.05% trypsin and mechanically disrupted by passing several times over a 75 μm nylon mesh filter. The resulting single cell suspension was washed, pelleted and plated at a density of 2-10×10^6 cells per 162 cm^2 flask in DMEM:F12 containing 10% fetal calf serum, insulin, gentamycin, and L-glutamine. After 7-10 days of growth, microglial cells were isolated by placement on rotary shaker at 200 rpm in a 37° C. incubator overnight. The non-adherent cells were removed and allowed to attach to a new flask for 1 to 3 h. […]
Brain derived primary HIV-1 isolates SF162 and JR-FL were cultured in human peripheral blood mononuclear cells (PBMC) essentially as described by Gartner and Popovic^12. […] After stimulation, cells were infected will either SF162 or JR-FL and cultured for 7 to 10 days until high titres of HIV-1 we detected in the supernatant by p24 ELISA assay. […]

[2] = tested on: HIV-1 isolate SF162 in primary human fetal microglia; test: p24 ELISA, HIV replication in SF162 infected microglia; conditions: Microglia/SF; for p24 pg/mL Day 5 after infection: HIV control 267.99; for p24 pg/mL Day 10 after infection: HIV control 209.18
Protocol: (§1) Purified primary human fetal astrocytes and microgial cells were prepared from 16 to 20 week old human fetal brain tissue by a modified procedure based on the methods of Cole and de Vellis^11, and Yong and Ante^13. Brain tissue was washed in ice-cold Hank's Balanced Salt Solution (HBSS) containing the antibiotics gentamycin and amphotericin B. Blood vessels and meninges were removed and the tissue was minced into small pieces. After mincing, the tissue was enzymatically dissociated by incubation in 0.05% trypsin and mechanically disrupted by passing several times over a 75 μm nylon mesh filter. The resulting single cell suspension was washed, pelleted and plated at a density of 2-10×10^6 cells per 162 cm^2 flask in DMEM:F12 containing 10% fetal calf serum, insulin, gentamycin, and L-glutamine. After 7-10 days of growth, microglial cells were isolated by placement on rotary shaker at 200 rpm in a 37° C. incubator overnight. The non-adherent cells were removed and allowed to attach to a new flask for 1 to 3 h. Following attachment, the cells were washed and refed with media containing 10% fetal calf serum, insulin, gentamycin, L-glutamine, and NI supplement. Astrocytes were subcultured from adherent cells in media containing 15% fetal calf serum, insulin, gentamycin, and L-glutamine and contaminating microglia were removed by repeated rotary shaking. Cultured astrocytic and microglial cells were plated at a density of 2.5×10^5 per well into 6 well plates for subsequent infection.
(§2) Brain derived primary HIV-1 isolates SF162 and JR-FL were cultured in human peripheral blood mononuclear cells (PBMC) essentially as described by Gartner and Popovic^12. PBMC were isolated from human buffy coat by fico gradient and plated at a density of 2.5×10^6 per ml in RPMI containing 10% fet calf serum and gentamycin. Cells were stimulated by the addition of 5 ug/ml phytohemagglutinin (PHA) for 48 h. After stimulation, cells were infected will either SF162 or JR-FL and cultured for 7 to 10 days until high titres of HIV-1 we detected in the supernatant by p24 ELISA assay. When viral production was optimal, the cells were pelleted, the supernatant containing HIV-1 was aliquoted and stored at −70° C. until use. P24 ELISA assay was performed on an aliquoted stock to determine the viral titre.
2.5×10^5 microglial or astrocytic cells were plated per well into 6-we plates. The next day, cells were washed and refed with fresh medium. 2×10^4 p2units of either SF 162 or JR-FL virus was added per well in a total of 1 ml of vir inoculum. In control experiments, the virus was not added. Cells were incubated with virus overnight at 37° C., washed extensively with PBS, and refed with […] fresh medium. […] 500 μl of medium were removed at the indicated times following infection and stored at −70° C. for later analysis. Each time medium was removed, a volume amount of fresh medium was added. In control experiments IB-MECA and Cl-IB-MECA were omitted.
ELISA assay to detect the HIV-1 viral core protein, p24, was performed of 50 μl of the collected supernatant utilizing the commercially available p24 ELISA Kit (NEN/Dupont) according to the manufacturer's instructions.

[3] = tested on: HIV-1 isolate JR-FL in primary human fetal astrocytes; test: p24 ELISA, HIV replication in JR-FL infected astroglial cells; conditions: for p24 pg/mL Day 5: Astroglia/JR-FL, 0.01 (μM) every 24 hours, culture medium 5 days after HIV infection, HIV control 22.83; for amount of p24 protein in culture medium from HIV infected cells in comparison to untreated HIV controls: summary statement for Tables 1 to 3 (astroglia and microglia, JR-FL and SF162)
Protocol: as §1, §2
2.5×10^5 microglial or astrocytic cells were plated per well into 6-we plates. The next day, cells were washed and refed with fresh medium. 2×10^4 p2units of either SF 162 or JR-FL virus was added per well in a total of 1 ml of vir inoculum. In control experiments, the virus was not added. Cells were incubated with virus overnight at 37° C., washed extensively with PBS, and refed with […] fresh medium. Cultures were treated with IB-MECA or CI-IB-MECA at concentration of 0.01 μM every 24 hours. […]

## CNC(=O)[C@H]1O[C@@H](n2cnc3c(NCc4cccc(I)c4)ncnc32)[C@H](O)[C@@H]1O [IB-MECA, 1-deoxy-1-{6-[({3-iodophenyl}methyl)amino]-9H-purine-9-yl}-N-methyl-β-D-ribofuranuron-amide]
[1]
  p24 pg/mL Day 5: 137.58 pg/mL
[2]; 0.01 (μM)
  p24 pg/mL Day 5 after infection: 81.33 pg/mL
  p24 pg/mL Day 10 after infection: 62.79 pg/mL
[2]; 0.1
  p24 pg/mL Day 5 after infection: 82.29 pg/mL
  p24 pg/mL Day 10 after infection: 54.80 pg/mL
[3]
  p24 pg/mL Day 5: 3.02 pg/mL
  amount of p24 protein in culture medium from HIV infected cells in comparison to untreated HIV controls: significantly reduced

## CNC(=O)[C@H]1O[C@@H](n2cnc3c(NCc4cccc(I)c4)nc(Cl)nc32)[C@H](O)[C@@H]1O [Cl-IB-MECA]
[1]
  p24 pg/mL Day 5: 288.77 pg/mL
[2]; 0.01 (μM)
  p24 pg/mL Day 5 after infection: 127.03 pg/mL
  p24 pg/mL Day 10 after infection: 111.05 pg/mL
[2]; 0.1
  p24 pg/mL Day 5 after infection: 10.81 pg/mL
  p24 pg/mL Day 10 after infection: 80.37 pg/mL
[3]
  p24 pg/mL Day 5: 8.45 pg/mL
  amount of p24 protein in culture medium from HIV infected cells in comparison to untreated HIV controls: significantly reduced

Source: US7589075B2, “Use of an adenosine A3 receptor agonist for inhibition of viral replication” (Can-Fite Biopharma Ltd., priority 2001, dated 2009)
